Assay results taken from article PMC7311426, “An amphipathic peptide with antibiotic activity against multidrug-resistant Gram-negative bacteria” (Nature Communications, 2020).
Where two headings read alike, the source gives them in different places.

Columns and labels:
[1] = tested on: P. aeruginosa; conditions: P. aeruginosa ATCC 27853; quality control range printed beside broth microdilution MIC of parent strain; cited from earlier work
[2] = tested on: E. coli; parameters: method as in Hasman H, et al. Euro. Surveill. (2015) 20:49; conditions: E. coli ESBL20150072, mcr-1 pos; ESBL; CAMHB; comparator antibiotics; ref Hasman H, et al. Euro. Surveill. (2015) 20:49; cited from earlier work
[3] = tested on: E. coli ATCC 25922; assay: microbe, parasite or virus in culture; type: cell-based, Escherichia coli; parameters: MIC, Survanta (5%) replicates: unit not given beside the values; conditions: for MIC, Survanta (5%) replicates: BMD with 5% Survanta lung surfactant
In short: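 Broth microdilution MIC in Mueller Hinton broth, 12-point 2-fold series from 128 or 64 down to 0.06 or 0.03 μg mL^−1, 5 × 10^5 CFU mL^−1 inoculum. Read visually after 18-20 h at 37 °C without shaking; n ≥ 6. Additional tests in CAMHB, and in MHB with 1% agarose.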

[4] = tested on: A. baumannii ATCC 19636; assay: microbe, parasite or virus in culture; type: cell-based, Acinetobacter baumannii
[5] = tested on: E. coli (AID#172 & ATCC 25922); assay: microbe, parasite or virus in culture; type: cell-based, Escherichia coli
Experimental: (§1) The test media was cation-adjusted MHB (CAMHB, Becton Dickinson) supplemented with 2% Noble Agar (Becton Dickinson) and additionally for AA139 with 0.1% BSA. The agar dilution MIC values were determined as recommended by Clinical and Laboratory Standards Institute (CLSI)[47]. […] The inoculum for the spontaneous mutation plates targeted 10^9 to 10^10 colony-forming units (CFU) per plate. The viable count of each suspension was determined by plating serial ten-fold dilutions onto MHB/NA in duplicate. In addition, agar plates without drug were inoculated as positive controls. Plates were inspected for growth at both 24 and 48 h. Colony counts were determined manually. Using the counts at 48 h, the spontaneous mutation frequency was calculated using the following equation: (average number of colonies from duplicate selection plates)/(total number of cells inoculated onto each plate). If there were no colonies on the antibiotic selection plates, the spontaneous mutation frequency was reported as less than the frequency observed with one colony to indicate that the spontaneous mutation frequency was less than the limit of detection (one CFU).

[6] = tested on: K. pneumoniae (#3010 & ST258); assay: microbe, parasite or virus in culture; type: cell-based, Klebsiella pneumoniae
Experimental: as §1

[7] = tested on: P. aeruginosa (UNT138-1 & ATCC 27853); assay: microbe, parasite or virus in culture; type: cell-based, Pseudomonas aeruginosa
Experimental: as §1

[8] = tested on: E. coli ATCC 25922; type: cell-based, Escherichia coli
[9] = tested on: P. aeruginosa; assay: microbe, parasite or virus in culture; type: cell-based, Pseudomonas aeruginosa; parameters: MIC, Survanta (5%) replicates: unit not given beside the values
[10] = A. baumannii ATCC 19636 type strain, n=2 to 6, mode or median
[11] = P. aeruginosa ATCC 27853 control strain, n=2 to 6, mode or median
[12] = P. aeruginosa FADDI-070 MDR, PmxR, n=2 to 6, mode or median

In the case of `C[C@H]1[C@H](NC(=O)/C(=N\OC(C)(C)C(=O)O)c2csc(N)n2)C(=O)N1S(=O)(=O)O` [AZT], the “MIC Quality control range” value [1] is listed as 2 to 8 µg/mL.
For `C[C@@H](O)[C@H]1C(=O)N2C(C(=O)O)=C(S[C@@H]3CN[C@H](C(=O)N(C)C)C3)[C@H](C)[C@H]12` [Meropenem, meropenem, reference compound], the “BMD MIC” value [2] is given as ≤1 µg/mL and the “MIC Quality control range” value [1] is given as 0.12 to 1 µg/mL.
For `NC[C@H]1O[C@H](O[C@H]2[C@H](O)[C@@H](O[C@H]3O[C@H](CO)[C@@H](O)[C@H](N)[C@H]3O)[C@H](N)C[C@@H]2N)[C@H](N)C[C@@H]1O` [TOB], the “MIC Quality control range” value [1] is given as 0.25 to 1 µg/mL.
With colistin the “MIC, Survanta (5%) replicates” value ([3]; E. coli ATCC 25922, FDA control strain, replicate 1) was 0.06, the “MIC, Survanta (5%) replicates” value ([3]; E. coli ATCC 25922, FDA control strain, replicate 2) was 0.06 and the “MIC, Survanta (5%) replicates” value ([3]; E. coli ATCC 25922, FDA control strain, replicate 3) was ≤0.03. The “MIC, Survanta (5%) replicates” value ([3]; E. coli ATCC 25922, FDA control strain, replicate 4) was ≤0.03, the “MIC, Serum (50%)” value ([3]; E. coli ATCC 25922, FDA control strain, BMD with 50% human serum, mode, or median where no mode, n=4 to 6, where n=2 differs the higher value) was ≤0.03 and the “MIC, Serum (50%) replicates” value ([3]; E. coli ATCC 25922, FDA control strain, BMD with 50% human serum, replicate 1) was ≤0.03. The “MIC, Serum (50%) replicates” value ([3]; E. coli ATCC 25922, FDA control strain, BMD with 50% human serum, replicate 2) was ≤0.03, the “MIC, Serum (50%) replicates” value ([3]; E. coli ATCC 25922, FDA control strain, BMD with 50% human serum, replicate 3) was 0.125 and the “MIC, Serum (50%) replicates” value ([3]; E. coli ATCC 25922, FDA control strain, BMD with 50% human serum, replicate 4) was 0.063. For the same compound, the “MIC, Serum (50%) replicates” value ([3]; E. coli ATCC 25922, FDA control strain, BMD with 50% human serum, replicate 5) was ≤0.03, the “MIC, Serum (50%) replicates” value ([3]; E. coli ATCC 25922, FDA control strain, BMD with 50% human serum, replicate 6) was ≤0.03 and the “MIC, Serum (50%)” value ([3]; E. coli ATCC 25922, MHB + 50% (v/v) human serum, n=2 to 6, mode or median) was ≤ 0.03 µg/mL. For the same compound, the “MIC, Survanta (5%)” value ([4]; A. baumannii ATCC 19636, type strain, BMD with 5% Survanta lung surfactant, mode, or median where no mode, n=4 to 6, where n=2 differs the higher value) was 0.125, the “MIC, Survanta (5%) replicates” value ([4]; A. baumannii ATCC 19636, type strain, BMD with 5% Survanta lung surfactant, replicate 1) was 0.5 and the “MIC, Survanta (5%) replicates” value ([4]; A. baumannii ATCC 19636, type strain, BMD with 5% Survanta lung surfactant, replicate 2) was 0.25. For the same compound, the “MIC, Survanta (5%) replicates” value ([4]; A. baumannii ATCC 19636, type strain, BMD with 5% Survanta lung surfactant, replicate 3) was 0.06, the “MIC, Survanta (5%) replicates” value ([4]; A. baumannii ATCC 19636, type strain, BMD with 5% Survanta lung surfactant, replicate 4) was 0.06 and the “MIC, Serum (50%)” value ([4]; A. baumannii ATCC 19636, type strain, BMD with 50% human serum, mode, or median where no mode, n=4 to 6, where n=2 differs the higher value) was ≤0.031. For the same compound, the “MIC, Serum (50%) replicates” value ([4]; A. baumannii ATCC 19636, type strain, BMD with 50% human serum, replicate 1) was ≤0.031, the “MIC, Serum (50%) replicates” value ([4]; A. baumannii ATCC 19636, type strain, BMD with 50% human serum, replicate 2) was ≤0.031 and the “MIC, Serum (50%) replicates” value ([4]; A. baumannii ATCC 19636, type strain, BMD with 50% human serum, replicate 3) was ≤0.031. For the same compound, the “MIC, Serum (50%) replicates” value ([4]; A. baumannii ATCC 19636, type strain, BMD with 50% human serum, replicate 4) was ≤0.031, the “MIC, Serum (50%)” value [4, 10] was ≤ 0.031 µg/mL and the “MIC, Survanta (5%)” value [4, 10] was 0.125 µg/mL. The “BMD MIC” value [2] was >4 µg/mL, the “Noble agar dilution MIC” value ([5]; E. coli AID#172) was 1 µg/mL and the “Spontaneous frequency of resistance at 4× MIC” value ([5]; E. coli AID#172, counts at 48 h, >TC = colonies too numerous to count) was “>TC”. For the same compound, the “Agar (Noble) Dilution MIC” value ([5]; E. coli ATCC 25922) was 1 µg/mL, the “Noble agar dilution MIC” value ([5]; E. coli ATCC 25922) was 1 µg/mL and the “Noble agar dilution MIC” value ([6]; K. pneumoniae SSI#3010) was 1 µg/mL. The “Agar (Noble) Dilution MIC” value ([6]; K. pneumoniae ST258) was 1 µg/mL, the “Noble agar dilution MIC” value ([6]; K. pneumoniae ST258) was 1 µg/mL and the “Agar (Noble) Dilution MIC” value ([7]; P. aeruginosa ATCC 27853) was 2 µg/mL. For the same compound, the “Noble agar dilution MIC” value ([7]; P. aeruginosa ATCC 27853) was 2 µg/mL, the “Noble agar dilution MIC” value ([7]; P. aeruginosa UNT138-1) was 2 µg/mL and the “MIC, Survanta (5%)” value ([8]; E. coli ATCC 25922, FDA control strain, BMD with 5% Survanta lung surfactant, mode, or median where no mode, n=4 to 6, where n=2 differs the higher value) was ≤0.06. For the same compound, the “MIC, Survanta (5%)” value ([8]; E. coli ATCC 25922, MHB + 5% (v/v) lung surfactant, n=2 to 6, mode or median) was ≤ 0.06 µg/mL, the “MIC, Survanta (5%)” value ([9]; P. aeruginosa ATCC 27853, control strain, BMD with 5% Survanta lung surfactant, mode, or median where no mode, n=4 to 6, where n=2 differs the higher value) was 0.25 and the “MIC, Survanta (5%) replicates” value ([9]; P. aeruginosa ATCC 27853, control strain, BMD with 5% Survanta lung surfactant, replicate 1) was 0.5. For the same compound, the “MIC, Survanta (5%) replicates” value ([9]; P. aeruginosa ATCC 27853, control strain, BMD with 5% Survanta lung surfactant, replicate 2) was 0.5, the “MIC, Survanta (5%) replicates” value ([9]; P. aeruginosa ATCC 27853, control strain, BMD with 5% Survanta lung surfactant, replicate 3) was 0.125 and the “MIC, Survanta (5%) replicates” value ([9]; P. aeruginosa ATCC 27853, control strain, BMD with 5% Survanta lung surfactant, replicate 4) was 0.125. For the same compound, the “MIC, Serum (50%)” value ([9]; P. aeruginosa ATCC 27853, control strain, BMD with 50% human serum, mode, or median where no mode, n=4 to 6, where n=2 differs the higher value) was 0.25, the “MIC, Serum (50%) replicates” value ([9]; P. aeruginosa ATCC 27853, control strain, BMD with 50% human serum, replicate 1) was 0.5 and the “MIC, Serum (50%) replicates” value ([9]; P. aeruginosa ATCC 27853, control strain, BMD with 50% human serum, replicate 2) was 0.5. The “MIC, Serum (50%) replicates” value ([9]; P. aeruginosa ATCC 27853, control strain, BMD with 50% human serum, replicate 3) was 0.25, the “MIC, Serum (50%) replicates” value ([9]; P. aeruginosa ATCC 27853, control strain, BMD with 50% human serum, replicate 4) was 0.25 and the “MIC, Serum (50%) replicates” value ([9]; P. aeruginosa ATCC 27853, control strain, BMD with 50% human serum, replicate 5) was 0.125. For the same compound, the “MIC, Serum (50%) replicates” value ([9]; P. aeruginosa ATCC 27853, control strain, BMD with 50% human serum, replicate 6) was 0.125, the “MIC, Serum (50%)” value [9, 11] was 0.25 µg/mL and the “MIC, Survanta (5%)” value [9, 11] was 0.25 µg/mL. For the same compound, the “MIC, Survanta (5%)” value ([9]; P. aeruginosa FADDI-070, MDR, PmxR, BMD with 5% Survanta lung surfactant, mode, or median where no mode, n=4 to 6, where n=2 differs the higher value) was ≥64, the “MIC, Survanta (5%) replicates” value ([9]; P. aeruginosa FADDI-070, MDR, PmxR, BMD with 5% Survanta lung surfactant, replicate 1) was 64 and the “MIC, Survanta (5%) replicates” value ([9]; P. aeruginosa FADDI-070, MDR, PmxR, BMD with 5% Survanta lung surfactant, replicate 2) was 64. The “MIC, Survanta (5%) replicates” value ([9]; P. aeruginosa FADDI-070, MDR, PmxR, BMD with 5% Survanta lung surfactant, replicate 3) was >64, the “MIC, Survanta (5%) replicates” value ([9]; P. aeruginosa FADDI-070, MDR, PmxR, BMD with 5% Survanta lung surfactant, replicate 4) was >64 and the “MIC, Serum (50%) replicates” value ([9]; P. aeruginosa FADDI-070, MDR, PmxR, BMD with 50% human serum, replicate 1) was 0.25. The “MIC, Serum (50%) replicates” value ([9]; P. aeruginosa FADDI-070, MDR, PmxR, BMD with 50% human serum, replicate 2) was 0.125, the “MIC, Serum (50%)” value ([9]; P. aeruginosa FADDI-070, MDR, PmxR, BMD with 50% human serum, where n=2 differs the higher value is recorded) was 0.25 and the “MIC, Serum (50%)” value [9, 12] was 0.25 µg/mL. The “MIC, Survanta (5%)” value [9, 12] was ≥ 64 µg/mL.
